Test results as given in PubChem BioAssay (NCI).
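96-well plates; 48 h exposure; 5 concentrations. Endpoints by linear interpolation between flanking doses. Not reached: highest tested concentration assigned. TGI: concentration producing complete growth inhibition.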

Tests used:
Assay in all cases: DTP human tumour cell line panel, 48 h
786-0 renal = test system: 786-0 renal
A498 renal = test system: A498 renal
A549 NSCLC = test system: A549 NSCLC
ACHN renal = test system: ACHN renal
CAKI-1 renal = test system: CAKI-1 renal
COLO 205 colon = test system: COLO 205 colon
DLD-1 colon = test system: DLD-1 colon
DMS 114 small cell lung = test system: DMS 114 small cell lung
DMS 273 small cell lung = test system: DMS 273 small cell lung
EKVX NSCLC = test system: EKVX NSCLC
HCC-2998 colon = test system: HCC-2998 colon
HCT-116 colon = test system: HCT-116 colon
HCT-15 colon = test system: HCT-15 colon
HOP-18 NSCLC = test system: HOP-18 NSCLC
HOP-62 NSCLC = test system: HOP-62 NSCLC
HOP-92 NSCLC = test system: HOP-92 NSCLC
HT29 colon = test system: HT29 colon
IGROV1 ovarian = test system: IGROV1 ovarian
KM12 colon = test system: KM12 colon
KM20L2 colon = test system: KM20L2 colon
LOX IMVI melanoma = test system: LOX IMVI melanoma
LXFL 529 NSCLC = test system: LXFL 529 NSCLC
M14 melanoma = test system: M14 melanoma
M19-MEL melanoma = test system: M19-MEL melanoma
MALME-3M melanoma = test system: MALME-3M melanoma
MOLT-4 leukemia = test system: MOLT-4 leukemia
NCI-H226 lung = test system: NCI-H226 lung
NCI-H23 lung = test system: NCI-H23 lung
NCI-H460 lung = test system: NCI-H460 lung
NCI-H522 lung = test system: NCI-H522 lung
OVCAR-3 ovarian = test system: OVCAR-3 ovarian
OVCAR-4 ovarian = test system: OVCAR-4 ovarian
OVCAR-5 ovarian = test system: OVCAR-5 ovarian
OVCAR-8 ovarian = test system: OVCAR-8 ovarian
RXF 393 renal = test system: RXF 393 renal
SF-268 CNS = test system: SF-268 CNS
SF-295 CNS = test system: SF-295 CNS
SF-539 CNS = test system: SF-539 CNS
SK-MEL-2 melanoma = test system: SK-MEL-2 melanoma
SK-MEL-28 melanoma = test system: SK-MEL-28 melanoma
SK-OV-3 ovarian = test system: SK-OV-3 ovarian
SN12C renal = test system: SN12C renal
SNB-19 CNS = test system: SNB-19 CNS
SNB-75 CNS = test system: SNB-75 CNS
SNB-78 CNS = test system: SNB-78 CNS
SR leukemia = test system: SR leukemia
SW-620 colon = test system: SW-620 colon
TK-10 renal = test system: TK-10 renal
U251 CNS = test system: U251 CNS
UACC-257 melanoma = test system: UACC-257 melanoma
UACC-62 melanoma = test system: UACC-62 melanoma
UO-31 renal = test system: UO-31 renal
XF 498 CNS = test system: XF 498 CNS
CCRF-CEM leukemia = test system: CCRF-CEM leukemia
K-562 leukemia = test system: K-562 leukemia
SK-MEL-5 melanoma = test system: SK-MEL-5 melanoma

`O=C(c1ccc2c3c(ccc(C(=O)C(F)(F)F)c13)CC2)C(F)(F)F` was tested, and the TGI (786-0 renal) was > 100 µM, the TGI (A498 renal) was > 100 µM and the TGI (A549 NSCLC) was > 100 µM. The TGI (ACHN renal) was > 100 µM, the TGI (CAKI-1 renal) was > 100 µM and the TGI (COLO 205 colon) was 44.1 µM. The TGI (DLD-1 colon) was > 100 µM, the TGI (DMS 114 small cell lung) was > 100 µM and the TGI (DMS 273 small cell lung) was > 100 µM. For the same compound, the TGI (EKVX NSCLC) was > 100 µM, the TGI (HCC-2998 colon) was > 100 µM and the TGI (HCT-116 colon) was > 100 µM. For the same compound, the TGI (HCT-15 colon) was > 100 µM, the TGI (HOP-18 NSCLC) was > 100 µM and the TGI (HOP-62 NSCLC) was > 100 µM. For the same compound, the TGI (HOP-92 NSCLC) was 76.2 µM, the TGI (HT29 colon) was > 100 µM and the TGI (IGROV1 ovarian) was > 100 µM. For the same compound, the TGI (KM12 colon) was > 100 µM, the TGI (KM20L2 colon) was > 100 µM and the TGI (LOX IMVI melanoma) was > 100 µM. For the same compound, the TGI (LXFL 529 NSCLC) was > 100 µM, the TGI (M14 melanoma) was > 100 µM and the TGI (M19-MEL melanoma) was > 100 µM. For the same compound, the TGI (MALME-3M melanoma) was > 100 µM, the TGI (MOLT-4 leukemia) was > 100 µM and the TGI (NCI-H226 lung) was > 100 µM. For the same compound, the TGI (NCI-H23 lung) was > 100 µM, the TGI (NCI-H460 lung) was > 100 µM and the TGI (NCI-H522 lung) was 98.9 µM. For the same compound, the TGI (OVCAR-3 ovarian) was > 100 µM, the TGI (OVCAR-4 ovarian) was > 100 µM and the TGI (OVCAR-5 ovarian) was > 100 µM. For the same compound, the TGI (OVCAR-8 ovarian) was > 100 µM, the TGI (RXF 393 renal) was > 100 µM and the TGI (SF-268 CNS) was > 100 µM. For the same compound, the TGI (SF-295 CNS) was > 100 µM, the TGI (SF-539 CNS) was > 100 µM and the TGI (SK-MEL-2 melanoma) was > 100 µM. For the same compound, the TGI (SK-MEL-28 melanoma) was > 100 µM, the TGI (SK-OV-3 ovarian) was > 100 µM and the TGI (SN12C renal) was > 100 µM. For the same compound, the TGI (SNB-19 CNS) was > 100 µM, the TGI (SNB-75 CNS) was > 100 µM and the TGI (SNB-78 CNS) was > 100 µM. For the same compound, the TGI (SR leukemia) was > 100 µM, the TGI (SW-620 colon) was > 100 µM and the TGI (TK-10 renal) was > 100 µM. The TGI (U251 CNS) was > 100 µM, the TGI (UACC-257 melanoma) was > 100 µM and the TGI (UACC-62 melanoma) was > 100 µM. The TGI (UO-31 renal) was > 100 µM and the TGI (XF 498 CNS) was 50.2 µM.
`CC1CCC23COC(=O)C2C(O)CCC3C1(C)CC(O)c1ccoc1` (stereo unspecified) was tested, and the TGI (786-0 renal) was > 100 µM, the TGI (A498 renal) was > 100 µM and the TGI (A549 NSCLC) was > 100 µM. The TGI (ACHN renal) was > 100 µM, the TGI (CCRF-CEM leukemia) was > 100 µM and the TGI (COLO 205 colon) was > 100 µM. For the same compound, the TGI (DLD-1 colon) was > 100 µM, the TGI (DMS 114 small cell lung) was > 100 µM and the TGI (EKVX NSCLC) was > 100 µM. For the same compound, the TGI (HCC-2998 colon) was > 100 µM, the TGI (HCT-116 colon) was > 100 µM and the TGI (HCT-15 colon) was > 100 µM. For the same compound, the TGI (HOP-18 NSCLC) was > 100 µM, the TGI (HOP-62 NSCLC) was > 100 µM and the TGI (HOP-92 NSCLC) was > 100 µM. The TGI (HT29 colon) was > 100 µM, the TGI (IGROV1 ovarian) was > 100 µM and the TGI (K-562 leukemia) was > 100 µM. The TGI (KM12 colon) was > 100 µM, the TGI (KM20L2 colon) was > 100 µM and the TGI (LOX IMVI melanoma) was > 100 µM. For the same compound, the TGI (LXFL 529 NSCLC) was > 100 µM, the TGI (M14 melanoma) was > 100 µM and the TGI (M19-MEL melanoma) was > 100 µM. The TGI (MALME-3M melanoma) was > 100 µM, the TGI (MOLT-4 leukemia) was > 100 µM and the TGI (NCI-H226 lung) was > 100 µM. The TGI (NCI-H23 lung) was > 100 µM, the TGI (NCI-H460 lung) was > 100 µM and the TGI (NCI-H522 lung) was > 100 µM. The TGI (OVCAR-3 ovarian) was > 100 µM, the TGI (OVCAR-4 ovarian) was > 100 µM and the TGI (OVCAR-5 ovarian) was > 100 µM. For the same compound, the TGI (OVCAR-8 ovarian) was > 100 µM, the TGI (RXF 393 renal) was > 100 µM and the TGI (SF-268 CNS) was > 100 µM. The TGI (SF-295 CNS) was > 100 µM, the TGI (SF-539 CNS) was > 100 µM and the TGI (SK-MEL-2 melanoma) was > 100 µM. The TGI (SK-MEL-28 melanoma) was > 100 µM, the TGI (SK-MEL-5 melanoma) was > 100 µM and the TGI (SK-OV-3 ovarian) was > 100 µM. For the same compound, the TGI (SN12C renal) was > 100 µM, the TGI (SNB-19 CNS) was > 100 µM and the TGI (SNB-75 CNS) was > 100 µM. For the same compound, the TGI (SNB-78 CNS) was > 100 µM, the TGI (SW-620 colon) was > 100 µM and the TGI (TK-10 renal) was > 100 µM. The TGI (U251 CNS) was > 100 µM, the TGI (UACC-257 melanoma) was > 100 µM and the TGI (UACC-62 melanoma) was > 100 µM. The TGI (UO-31 renal) was > 100 µM and the TGI (XF 498 CNS) was > 100 µM.
